Laboratory results published in ChEMBL document CHEMBL4507268 (2021).

Assays:
Conditions in all cases: Compound concentration 1000.0 nM
[1] = molecular target: T1, Serine/threonine-protein kinase STK11 (Homo sapiens) (UniProt Q15831)
T1 sequence (whole entry): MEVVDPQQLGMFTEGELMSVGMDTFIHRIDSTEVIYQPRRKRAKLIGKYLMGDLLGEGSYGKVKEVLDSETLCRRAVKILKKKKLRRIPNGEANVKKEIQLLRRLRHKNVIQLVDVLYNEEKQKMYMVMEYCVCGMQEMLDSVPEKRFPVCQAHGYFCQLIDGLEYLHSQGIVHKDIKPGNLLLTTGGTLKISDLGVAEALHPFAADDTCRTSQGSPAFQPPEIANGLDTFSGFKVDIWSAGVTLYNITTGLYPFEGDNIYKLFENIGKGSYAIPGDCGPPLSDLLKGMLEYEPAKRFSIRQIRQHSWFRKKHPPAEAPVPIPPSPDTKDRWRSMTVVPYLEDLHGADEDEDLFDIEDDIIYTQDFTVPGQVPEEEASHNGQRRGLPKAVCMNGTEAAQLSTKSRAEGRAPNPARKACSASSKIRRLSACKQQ

[2] = molecular target: Dual specificity mitogen-activated protein kinase kinase 4 (Homo sapiens) (UniProt P45985)
[3] = molecular target: T2, Dual specificity protein kinase TTK (Homo sapiens) (UniProt P33981)
T2 sequence (whole entry): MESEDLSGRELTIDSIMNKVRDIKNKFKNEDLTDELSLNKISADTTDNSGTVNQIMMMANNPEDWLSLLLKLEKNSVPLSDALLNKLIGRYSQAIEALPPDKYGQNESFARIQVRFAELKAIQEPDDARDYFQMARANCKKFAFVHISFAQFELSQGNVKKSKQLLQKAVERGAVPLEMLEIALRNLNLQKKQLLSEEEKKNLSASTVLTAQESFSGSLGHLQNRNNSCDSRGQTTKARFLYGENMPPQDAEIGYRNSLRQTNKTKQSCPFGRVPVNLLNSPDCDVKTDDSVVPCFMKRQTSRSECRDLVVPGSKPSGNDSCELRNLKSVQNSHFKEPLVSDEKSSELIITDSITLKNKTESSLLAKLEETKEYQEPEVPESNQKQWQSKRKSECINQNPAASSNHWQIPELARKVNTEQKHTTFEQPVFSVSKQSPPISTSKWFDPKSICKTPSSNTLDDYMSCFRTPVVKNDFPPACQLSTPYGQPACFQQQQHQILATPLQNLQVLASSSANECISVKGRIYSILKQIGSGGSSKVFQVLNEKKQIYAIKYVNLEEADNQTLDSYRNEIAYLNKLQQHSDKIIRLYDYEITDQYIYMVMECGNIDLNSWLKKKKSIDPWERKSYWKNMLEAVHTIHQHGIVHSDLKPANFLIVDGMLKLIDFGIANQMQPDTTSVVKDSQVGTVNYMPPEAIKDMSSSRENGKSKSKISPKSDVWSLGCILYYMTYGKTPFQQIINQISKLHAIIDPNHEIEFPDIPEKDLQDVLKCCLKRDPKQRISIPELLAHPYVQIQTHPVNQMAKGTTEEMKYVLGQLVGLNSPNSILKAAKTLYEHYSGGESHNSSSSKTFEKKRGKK

[4] = molecular target: T3, Tyrosine-protein kinase Mer (Homo sapiens) (UniProt Q12866)
T3 sequence (whole entry): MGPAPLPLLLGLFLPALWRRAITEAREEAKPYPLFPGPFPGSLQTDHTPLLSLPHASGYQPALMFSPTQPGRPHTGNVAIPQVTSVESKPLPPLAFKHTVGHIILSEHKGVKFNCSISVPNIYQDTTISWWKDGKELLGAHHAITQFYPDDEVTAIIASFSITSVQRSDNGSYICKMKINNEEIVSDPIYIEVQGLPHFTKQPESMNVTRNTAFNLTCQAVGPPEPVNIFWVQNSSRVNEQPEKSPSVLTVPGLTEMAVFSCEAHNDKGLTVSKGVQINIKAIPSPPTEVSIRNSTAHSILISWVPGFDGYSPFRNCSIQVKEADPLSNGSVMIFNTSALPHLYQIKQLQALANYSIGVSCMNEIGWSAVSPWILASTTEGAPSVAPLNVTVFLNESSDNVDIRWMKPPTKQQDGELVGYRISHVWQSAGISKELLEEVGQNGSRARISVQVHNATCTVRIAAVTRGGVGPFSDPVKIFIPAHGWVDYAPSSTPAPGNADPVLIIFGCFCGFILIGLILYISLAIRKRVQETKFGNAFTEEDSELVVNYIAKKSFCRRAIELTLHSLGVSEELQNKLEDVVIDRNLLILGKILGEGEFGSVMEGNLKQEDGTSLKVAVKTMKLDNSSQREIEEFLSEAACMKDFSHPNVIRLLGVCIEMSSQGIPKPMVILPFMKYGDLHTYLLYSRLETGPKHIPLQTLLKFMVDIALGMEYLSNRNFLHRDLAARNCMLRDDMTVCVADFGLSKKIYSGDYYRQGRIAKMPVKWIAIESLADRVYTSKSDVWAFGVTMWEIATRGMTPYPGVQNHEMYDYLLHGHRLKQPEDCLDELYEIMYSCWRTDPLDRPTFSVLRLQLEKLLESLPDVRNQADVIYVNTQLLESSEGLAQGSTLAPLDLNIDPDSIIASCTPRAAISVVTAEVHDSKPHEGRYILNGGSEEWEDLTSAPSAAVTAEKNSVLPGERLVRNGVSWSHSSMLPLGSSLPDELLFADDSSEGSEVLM

[5] = molecular target: T4, Tyrosine-protein kinase ZAP-70 (Homo sapiens) (UniProt P43403)
T4 sequence (whole entry): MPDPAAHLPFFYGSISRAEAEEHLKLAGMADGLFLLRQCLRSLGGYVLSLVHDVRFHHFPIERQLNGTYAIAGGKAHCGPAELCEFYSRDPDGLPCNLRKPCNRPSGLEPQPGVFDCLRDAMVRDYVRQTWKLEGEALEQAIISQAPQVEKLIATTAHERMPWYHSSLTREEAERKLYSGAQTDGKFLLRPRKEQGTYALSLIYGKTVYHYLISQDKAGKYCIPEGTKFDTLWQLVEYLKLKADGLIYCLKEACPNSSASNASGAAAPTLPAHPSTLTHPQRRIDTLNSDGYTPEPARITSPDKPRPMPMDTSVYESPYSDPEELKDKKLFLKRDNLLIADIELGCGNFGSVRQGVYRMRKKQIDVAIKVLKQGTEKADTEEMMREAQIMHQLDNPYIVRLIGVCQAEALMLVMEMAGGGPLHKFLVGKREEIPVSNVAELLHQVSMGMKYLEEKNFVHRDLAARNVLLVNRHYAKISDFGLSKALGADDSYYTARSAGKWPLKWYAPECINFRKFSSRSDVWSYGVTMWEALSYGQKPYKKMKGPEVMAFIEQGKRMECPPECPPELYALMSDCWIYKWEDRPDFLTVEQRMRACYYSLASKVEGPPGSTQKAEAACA

[6] = molecular target: Insulin-like growth factor 1 receptor (Homo sapiens) (UniProt P08069)

Measured: residual activity

Insulin-like growth factor 1 receptor (Homo sapiens), sequence (P08069 31-736 limits assumed): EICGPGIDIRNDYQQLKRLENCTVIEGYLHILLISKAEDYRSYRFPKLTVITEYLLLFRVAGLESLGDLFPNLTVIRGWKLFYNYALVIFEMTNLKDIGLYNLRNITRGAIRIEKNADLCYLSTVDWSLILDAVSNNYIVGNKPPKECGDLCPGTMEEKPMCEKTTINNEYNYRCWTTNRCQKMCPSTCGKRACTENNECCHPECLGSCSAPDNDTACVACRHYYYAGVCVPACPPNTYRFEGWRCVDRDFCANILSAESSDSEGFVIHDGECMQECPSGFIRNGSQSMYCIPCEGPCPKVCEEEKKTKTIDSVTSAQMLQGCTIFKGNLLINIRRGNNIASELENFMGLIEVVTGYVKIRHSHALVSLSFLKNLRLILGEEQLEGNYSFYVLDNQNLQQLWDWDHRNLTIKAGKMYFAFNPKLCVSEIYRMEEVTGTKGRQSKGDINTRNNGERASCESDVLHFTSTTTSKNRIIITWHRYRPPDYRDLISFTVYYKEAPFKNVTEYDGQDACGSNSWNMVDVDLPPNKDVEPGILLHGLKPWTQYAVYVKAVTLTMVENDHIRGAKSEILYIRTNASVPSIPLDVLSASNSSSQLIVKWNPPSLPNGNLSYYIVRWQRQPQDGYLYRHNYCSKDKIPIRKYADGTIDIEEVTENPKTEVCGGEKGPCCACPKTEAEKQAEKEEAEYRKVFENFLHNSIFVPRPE
Insulin-like growth factor 1 receptor (Homo sapiens), sequence (P08069 741-1367 limits assumed): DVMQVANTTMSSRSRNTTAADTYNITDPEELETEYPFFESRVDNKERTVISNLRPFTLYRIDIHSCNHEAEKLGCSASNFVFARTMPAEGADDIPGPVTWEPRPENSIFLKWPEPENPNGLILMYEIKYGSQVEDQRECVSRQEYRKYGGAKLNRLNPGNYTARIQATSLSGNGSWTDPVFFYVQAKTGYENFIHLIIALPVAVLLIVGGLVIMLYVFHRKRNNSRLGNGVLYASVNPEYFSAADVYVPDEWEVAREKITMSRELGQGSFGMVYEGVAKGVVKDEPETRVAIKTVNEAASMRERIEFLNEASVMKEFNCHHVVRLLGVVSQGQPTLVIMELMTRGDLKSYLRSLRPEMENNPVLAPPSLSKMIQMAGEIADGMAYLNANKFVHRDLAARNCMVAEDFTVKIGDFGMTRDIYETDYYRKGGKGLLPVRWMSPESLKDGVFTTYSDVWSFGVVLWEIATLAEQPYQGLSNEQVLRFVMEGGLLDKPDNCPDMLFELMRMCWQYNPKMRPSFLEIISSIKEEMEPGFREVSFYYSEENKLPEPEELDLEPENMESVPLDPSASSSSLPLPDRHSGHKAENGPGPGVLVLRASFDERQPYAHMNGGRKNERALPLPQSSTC
Dual specificity mitogen-activated protein kinase kinase 4 (Homo sapiens), sequence (P45985 whole entry): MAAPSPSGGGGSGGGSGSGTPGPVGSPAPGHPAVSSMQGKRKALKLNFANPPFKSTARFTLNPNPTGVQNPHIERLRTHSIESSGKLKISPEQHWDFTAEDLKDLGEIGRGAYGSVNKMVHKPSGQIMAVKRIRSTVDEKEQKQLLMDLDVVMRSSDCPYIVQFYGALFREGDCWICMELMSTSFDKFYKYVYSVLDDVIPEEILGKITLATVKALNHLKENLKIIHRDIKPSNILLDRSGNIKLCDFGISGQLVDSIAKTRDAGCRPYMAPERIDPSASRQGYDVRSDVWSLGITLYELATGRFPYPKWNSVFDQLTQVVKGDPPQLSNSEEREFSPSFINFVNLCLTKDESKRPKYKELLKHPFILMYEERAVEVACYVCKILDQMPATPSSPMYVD

Cc1nc(C2CCN(C(=O)c3ccc(OC(F)(F)F)cc3N)CC2)c2ncc(N3CCN(C)CC3)cc2n1 [BAY-693]
inactive: [1] 100% | [2] 100% | [3] 100% | [4] 87% | [5] 100% | [6] 91%

CN1CCN(c2cnc3c(C4CCN(C(=O)c5ccc(OC(F)(F)F)cc5N)CC4)ncnc3c2)CC1 [BAY-885]
inactive: [1] 100% | [2] 100% | [3] 100% | [4] 75% | [5] 100% | [6] 100%
